Reference: US4426382A, “4-Amino-6,7-dimethoxy-2-piperazinylquinazoline derivatives, their preparation and use” (Sankyo Company Limited, priority 1980, dated 1984)
Where a name gives a salt, the structure may show the parent alone.

Tested on: spontaneously hypertensive rats
Experiment: antihypertensive activity: blood pressure after oral administration to conscious spontaneously hypertensive rats
Format: in vivo
Settings: male spontaneously hypertensive rats
Experimental: The animals used in this test were 15 week old male spontaneously hypertensive rats. 3-5 rats were used to test each concentration of each compound. Each animal was treated as follows. […] A polyethylene cannula was then inserted into the abdominal aorta by the method of Weeks and Jones [J. R. Weeks and J. A. Jones, Proc. Soc. […] The other end of the cannula, leading out of the body, was fixed to the neck. One week after the operation, when the animal had recovered from post-operative invasion, this end of the cannula was connected to an apparatus to measure the blood pressure and heart beat directly without the need for any further anesthesia or restraint. The haemomanometer used was an improved type of that originated by Laffan et al. [P. J. Laffan, A. Peterson, S. W. Hitch and C.
The compound under test was suspended at the desired concentration in a 0.3% w/v aqueous solution of carboxymethylcellulose and administered orally in a volume of 2 ml/kg body weight. […] After administration of the sample, the blood pressure and heart beat of each animal were measured for 24 hours at 15 minute intervals.
For purposes of comparison, the same experiment was carried out with various concentrations of the known hypotensive agent, prazosin, in the form of its hydrochloride.
Δmax =Maximum change in blood pressure (mm/Hg) after administration of the compound under test;
Tmax =Time (in hours) after administration of the compound under test required for the blood pressure to obtain a maximum change;
T0.5 max =Time (in hours) after administration of the compound under test for the blood pressure to return to one-half of its maximum value.

SMILES: COc1cc2nc(N3CCN(C(=O)[C@@H]4C[C@H]4c4ccccc4)CC3)nc(N)c2cc1OC (relative stereo) [34 hydrochloride hydrate]
- T0.5 max, time after administration for the blood pressure to return to one-half of its maximum value (dose 3 mg/kg oral): 8 h
- Tmax, time after administration required for the blood pressure to obtain a maximum change (dose 3 mg/kg oral): 1 h
- Δmax, maximum change in blood pressure after administration (dose 3 mg/kg oral): -33 mmHg
- T0.5 max, time after administration for the blood pressure to return to one-half of its maximum value (dose 10 mg/kg oral): 12 h
- Tmax, time after administration required for the blood pressure to obtain a maximum change (dose 10 mg/kg oral): 2 h
- Δmax, maximum change in blood pressure after administration (dose 10 mg/kg oral): -50 mmHg

SMILES: CC=CC(=O)N1CCN(c2nc(N)c3cc(OC)c(OC)cc3n2)CC1 [1 hydrochloride hydrate]
- T0.5 max, time after administration for the blood pressure to return to one-half of its maximum value (dose 3 mg/kg oral): 8 h
- Tmax, time after administration required for the blood pressure to obtain a maximum change (dose 3 mg/kg oral): 0.25 h
- Δmax, maximum change in blood pressure after administration (dose 3 mg/kg oral): -35 mmHg
- T0.5 max, time after administration for the blood pressure to return to one-half of its maximum value (dose 30 mg/kg oral): 12 h
- Tmax, time after administration required for the blood pressure to obtain a maximum change (dose 30 mg/kg oral): 0.5 h
- Δmax, maximum change in blood pressure after administration (dose 30 mg/kg oral): -40 mmHg

SMILES: CCC=CC(=O)N1CCN(c2nc(N)c3cc(OC)c(OC)cc3n2)CC1 [5 hydrochloride]
- Tmax, time after administration required for the blood pressure to obtain a maximum change (dose 3 mg/kg oral): 0.5 h
- Δmax, maximum change in blood pressure after administration (dose 3 mg/kg oral): -40 mmHg
- T0.5 max, time after administration for the blood pressure to return to one-half of its maximum value (dose 3 mg/kg oral, 3 mg/kg): 7 h
- T0.5 max, time after administration for the blood pressure to return to one-half of its maximum value (dose 30 mg/kg oral, 30 mg/kg): 14 h
- Tmax, time after administration required for the blood pressure to obtain a maximum change (dose 30 mg/kg oral, 30 mg/kg): 0.75 h
- Δmax, maximum change in blood pressure after administration (dose 30 mg/kg oral, 30 mg/kg): -48 mmHg

SMILES: CC=CC(=O)N1CCCN(c2nc(N)c3cc(OC)c(OC)cc3n2)CC1 [9 hydrochloride hydrate]
- T0.5 max, time after administration for the blood pressure to return to one-half of its maximum value (dose 3 mg/kg oral): 3.5 h
- Tmax, time after administration required for the blood pressure to obtain a maximum change (dose 3 mg/kg oral): 0.5 h
- Δmax, maximum change in blood pressure after administration (dose 3 mg/kg oral): -25 mmHg
- T0.5 max, time after administration for the blood pressure to return to one-half of its maximum value (dose 30 mg/kg oral): 5 h
- Tmax, time after administration required for the blood pressure to obtain a maximum change (dose 30 mg/kg oral): 0.75 h
- Δmax, maximum change in blood pressure after administration (dose 30 mg/kg oral): -35 mmHg

SMILES: COc1cc2nc(N3CCN(C(=O)c4ccc(OCc5ccccc5)cc4)CC3)nc(N)c2cc1OC [14 hydrochloride dihydrate]
- T0.5 max, time after administration for the blood pressure to return to one-half of its maximum value (dose 3 mg/kg oral): 9.5 h
- Tmax, time after administration required for the blood pressure to obtain a maximum change (dose 3 mg/kg oral): 6 h
- Δmax, maximum change in blood pressure after administration (dose 3 mg/kg oral): -18 mmHg
- T0.5 max, time after administration for the blood pressure to return to one-half of its maximum value (dose 10 mg/kg oral): 12 h
- Tmax, time after administration required for the blood pressure to obtain a maximum change (dose 10 mg/kg oral): 6 to 7 h
- Δmax, maximum change in blood pressure after administration (dose 10 mg/kg oral): -29 mmHg
- T0.5 max, time after administration for the blood pressure to return to one-half of its maximum value (dose 30 mg/kg oral): 15 h
- Tmax, time after administration required for the blood pressure to obtain a maximum change (dose 30 mg/kg oral): 6 to 7 h
- Δmax, maximum change in blood pressure after administration (dose 30 mg/kg oral): -35 mmHg

SMILES: COc1cc2nc(N3CCN(C(=O)C(C)Oc4ccccc4)CC3)nc(N)c2cc1OC (stereo not drawn) [25 hydrochloride hemihydrate]
- T0.5 max, time after administration for the blood pressure to return to one-half of its maximum value (dose 1 mg/kg oral): 7 h
- Tmax, time after administration required for the blood pressure to obtain a maximum change (dose 1 mg/kg oral): 1 h
- Δmax, maximum change in blood pressure after administration (dose 1 mg/kg oral): -40 mmHg
- T0.5 max, time after administration for the blood pressure to return to one-half of its maximum value (dose 3 mg/kg oral): 14 h
- Tmax, time after administration required for the blood pressure to obtain a maximum change (dose 3 mg/kg oral): 1 h
- Δmax, maximum change in blood pressure after administration (dose 3 mg/kg oral): -70 mmHg

SMILES: COc1cc2nc(N3CCN(C(=O)COc4ccccc4)CC3)nc(N)c2cc1OC [27 hydrochloride hydrate]
- T0.5 max, time after administration for the blood pressure to return to one-half of its maximum value (dose 3 mg/kg oral): 8 h
- Tmax, time after administration required for the blood pressure to obtain a maximum change (dose 3 mg/kg oral): 5 h
- Δmax, maximum change in blood pressure after administration (dose 3 mg/kg oral): -20 mmHg
- T0.5 max, time after administration for the blood pressure to return to one-half of its maximum value (dose 30 mg/kg oral): 8 h
- Tmax, time after administration required for the blood pressure to obtain a maximum change (dose 30 mg/kg oral): 5 h
- Δmax, maximum change in blood pressure after administration (dose 30 mg/kg oral): -40 mmHg

SMILES: COc1cc2nc(N3CCN(C(=O)Cc4ccccc4)CC3)nc(N)c2cc1OC [28 hydrochloride hydrate]
- T0.5 max, time after administration for the blood pressure to return to one-half of its maximum value (dose 3 mg/kg oral): 9 h
- Tmax, time after administration required for the blood pressure to obtain a maximum change (dose 3 mg/kg oral): 1 h
- Δmax, maximum change in blood pressure after administration (dose 3 mg/kg oral): -30 mmHg
- T0.5 max, time after administration for the blood pressure to return to one-half of its maximum value (dose 30 mg/kg oral): 10 h
- Tmax, time after administration required for the blood pressure to obtain a maximum change (dose 30 mg/kg oral): 4 h
- Δmax, maximum change in blood pressure after administration (dose 30 mg/kg oral): -50 mmHg

SMILES: COc1cc2nc(N3CCN(C(=O)CCc4ccccc4)CC3)nc(N)c2cc1OC [29 hydrochloride hydrate]
- T0.5 max, time after administration for the blood pressure to return to one-half of its maximum value (dose 3 mg/kg oral): 8 h
- Tmax, time after administration required for the blood pressure to obtain a maximum change (dose 3 mg/kg oral): 2 h
- Δmax, maximum change in blood pressure after administration (dose 3 mg/kg oral): -30 mmHg
- T0.5 max, time after administration for the blood pressure to return to one-half of its maximum value (dose 30 mg/kg oral): 12 h
- Tmax, time after administration required for the blood pressure to obtain a maximum change (dose 30 mg/kg oral): 5 h
- Δmax, maximum change in blood pressure after administration (dose 30 mg/kg oral): -45 mmHg

SMILES: COc1cc2nc(N3CCN(C(=O)C=C4CCCCC4)CC3)nc(N)c2cc1OC [31 hydrochloride hydrate]
- T0.5 max, time after administration for the blood pressure to return to one-half of its maximum value (dose 3 mg/kg oral): 10 h
- Tmax, time after administration required for the blood pressure to obtain a maximum change (dose 3 mg/kg oral): 1 to 2 h
- Δmax, maximum change in blood pressure after administration (dose 3 mg/kg oral): -25 mmHg
- T0.5 max, time after administration for the blood pressure to return to one-half of its maximum value (dose 30 mg/kg oral): 14 h
- Tmax, time after administration required for the blood pressure to obtain a maximum change (dose 30 mg/kg oral): 1 to 2 h
- Δmax, maximum change in blood pressure after administration (dose 30 mg/kg oral): -40 mmHg

SMILES: COc1cc2nc(N3CCN(C(=O)C=C4CCCC4)CC3)nc(N)c2cc1OC [32 hydrochloride hydrate]
- T0.5 max, time after administration for the blood pressure to return to one-half of its maximum value (dose 3 mg/kg oral): 10 h
- Tmax, time after administration required for the blood pressure to obtain a maximum change (dose 3 mg/kg oral): 1 to 2 h
- Δmax, maximum change in blood pressure after administration (dose 3 mg/kg oral): -40 mmHg
- T0.5 max, time after administration for the blood pressure to return to one-half of its maximum value (dose 30 mg/kg oral): 7 h
- Tmax, time after administration required for the blood pressure to obtain a maximum change (dose 30 mg/kg oral): 1 to 2 h
- Δmax, maximum change in blood pressure after administration (dose 30 mg/kg oral): -80 mmHg

SMILES: COc1cc2nc(N3CCN(C(=O)C4(c5ccccc5)CC4)CC3)nc(N)c2cc1OC [33 hydrochloride hydrate]
- T0.5 max, time after administration for the blood pressure to return to one-half of its maximum value (dose 30 mg/kg oral): 8.5 h
- Tmax, time after administration required for the blood pressure to obtain a maximum change (dose 30 mg/kg oral): 1 h
- Δmax, maximum change in blood pressure after administration (dose 30 mg/kg oral): -50 mmHg

SMILES: COc1cc2nc(N3CCN(C(=O)c4ccc(OCc5ccccc5)c(OC)c4)CC3)nc(N)c2cc1OC [94 hydrochloride hemihydrate]
- T0.5 max, time after administration for the blood pressure to return to one-half of its maximum value (dose 30 mg/kg oral): 7 h
- Tmax, time after administration required for the blood pressure to obtain a maximum change (dose 30 mg/kg oral): 5 h
- Δmax, maximum change in blood pressure after administration (dose 30 mg/kg oral): -28 mmHg

SMILES: COc1cc2nc(N3CCN(C(=O)c4ccc(OCc5ccccc5)c(Cl)c4)CC3)nc(N)c2cc1OC [98 hydrochloride hemihydrate]
- T0.5 max, time after administration for the blood pressure to return to one-half of its maximum value (dose 30 mg/kg oral): 8 h
- Tmax, time after administration required for the blood pressure to obtain a maximum change (dose 30 mg/kg oral): 4 h
- Δmax, maximum change in blood pressure after administration (dose 30 mg/kg oral): -30 mmHg

SMILES: COc1cc2nc(N3CCN(C(=O)c4ccc(OC(C)c5ccccc5)cc4)CC3)nc(N)c2cc1OC (stereo not drawn) [103 hydrochloride sesquihydrate]
- T0.5 max, time after administration for the blood pressure to return to one-half of its maximum value (dose 10 mg/kg oral): 9.5 h
- Tmax, time after administration required for the blood pressure to obtain a maximum change (dose 10 mg/kg oral): 5 to 6 h
- Δmax, maximum change in blood pressure after administration (dose 10 mg/kg oral): -30 mmHg
- T0.5 max, time after administration for the blood pressure to return to one-half of its maximum value (dose 30 mg/kg oral): 13 h
- Tmax, time after administration required for the blood pressure to obtain a maximum change (dose 30 mg/kg oral): 5 to 6 h
- Δmax, maximum change in blood pressure after administration (dose 30 mg/kg oral): -41 mmHg

SMILES: C=C(C)C(=O)N1CCN(c2nc(N)c3cc(OC)c(OC)cc3n2)CC1 [Compound No. 2, 4-Amino-6,7-dimethoxy-2-[4-(2-methylacryloyl)-1-piperazinyl]quinazoline]
- T0.5 max, time after administration for the blood pressure to return to one-half of its maximum value (dose 3 mg/kg oral): 3.5 h
- Tmax, time after administration required for the blood pressure to obtain a maximum change (dose 3 mg/kg oral): 0.75 h
- Δmax, maximum change in blood pressure after administration (dose 3 mg/kg oral): -25 mmHg
- T0.5 max, time after administration for the blood pressure to return to one-half of its maximum value (dose 30 mg/kg oral): 9 h
- Tmax, time after administration required for the blood pressure to obtain a maximum change (dose 30 mg/kg oral): 0.5 h
- Δmax, maximum change in blood pressure after administration (dose 30 mg/kg oral): -35 mmHg
